Laboratory results from BindingDB's records for doi:10.7270/Q27W69N8 (Srmlsc, 2009).
Values joined by “and” are separate entries in the source; they are usually repeats but may differ in a detail not shown here. Equal entries are not always repeated.

Molecular target: T1, M17 leucyl aminopeptidase (Plasmodium falciparum (isolate 3D7), UniProt Q8IL11)
T1 sequence (Q8IL11 whole entry): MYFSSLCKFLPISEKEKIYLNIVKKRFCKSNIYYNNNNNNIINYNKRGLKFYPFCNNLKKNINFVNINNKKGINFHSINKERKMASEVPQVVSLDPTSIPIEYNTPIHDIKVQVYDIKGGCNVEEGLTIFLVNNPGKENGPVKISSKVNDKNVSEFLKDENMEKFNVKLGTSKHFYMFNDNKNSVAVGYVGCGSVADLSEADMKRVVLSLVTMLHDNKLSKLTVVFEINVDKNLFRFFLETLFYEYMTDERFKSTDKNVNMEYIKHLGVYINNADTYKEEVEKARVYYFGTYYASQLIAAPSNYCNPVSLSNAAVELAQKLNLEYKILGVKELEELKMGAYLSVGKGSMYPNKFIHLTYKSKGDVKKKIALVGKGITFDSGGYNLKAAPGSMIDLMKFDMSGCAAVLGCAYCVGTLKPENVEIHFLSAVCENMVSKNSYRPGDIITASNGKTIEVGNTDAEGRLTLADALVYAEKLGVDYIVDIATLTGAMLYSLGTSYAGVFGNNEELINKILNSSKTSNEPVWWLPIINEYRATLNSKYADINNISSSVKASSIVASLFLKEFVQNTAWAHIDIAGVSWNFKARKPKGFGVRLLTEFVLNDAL
Test: P. falciparum M17LAP inhibitors, primary screen, biochemical, fluorogenic H-Leu-NHMec substrate, 1536-well (AID 1619)

SMILES | IC50
C=c1cc2[nH]c(=O)c(=Cc3cccn3CCCOc3ccc(OC)cc3)c(=N)n2o1 | 10.9 µM
CN1C(=O)/C(=C/c2ccc(-c3ccccc3[N+](=O)[O-])o2)S/C1=N/c1ccc(Cl)c(C(=O)O)c1 [2-Chloro-5-[3-methyl-5-[1-[5-(2-nitro-phenyl)-furan-2-yl]-meth-(Z)-ylidene]-4-oxo-thiazolidin-(2Z)-ylideneamino]-benzoic acid] | 6.24 µM
CCc1nnc(NS(=O)(=O)c2ccc(N=CCC(=O)c3cccc4ccccc34)cc2)s1 [SMR000172027] | 10.1 µM
CC(=NNC(=O)CCc1c(C)[nH][nH]c1=O)c1ccc([N+](=O)[O-])cc1 | 80.6 µM
C=CCN1C(=O)/C(=C/c2ccc(OCC(=O)O)cc2)SC1=Nc1nccs1 [2-[4-[(Z)-[4-oxidanylidene-3-prop-2-enyl-2-(1,3-thiazol-2-ylimino)-1,3-thiazolidin-5-ylidene]methyl]phenoxy]ethanoic acid] | 18.9 µM
COc1cc(CN=Nc2ccc(Cl)c(C(=O)O)c2)ccc1OC(=O)c1ccco1 [2-chloro-5-[2-[[4-[2-furanyl(oxo)methoxy]-3-methoxyphenyl]methylidene]hydrazinyl]benzoic acid] | 48.8 µM
CCOc1ccc(-n2c(O)cc(Sc3nnc(-c4ccccc4)[nH]3)c2O)cc1 [MLS000765380] | 11.1 µM
CCOc1ccccc1-n1c(O)cc(Sc2nnc(-c3ccccc3)[nH]2)c1O [1-(2-ethoxyphenyl)-3-[(5-phenyl-4H-1,2,4-triazol-3-yl)thio]-2,5-pyrrolidinedione] | 8.97 µM
CCOC(=O)C1C(=O)C(=Cc2ccc(OCC(=O)O)c(OCC)c2)SC1=Nc1ccc(C)cc1 (stereo not given) [(2-ethoxy-4-{[4-(ethoxycarbonyl)-5-[(4-methylphenyl)amino]-3-oxo-2(3H)-thienylidene]methyl}phenoxy)acetic acid] | 15.6 µM
COc1ccc(CN=Nc2nc(O)c(CC(=O)O)s2)cc1OCc1ccc(Cl)cc1 [2-[2-[2-[[3-[(4-chlorophenyl)methoxy]-4-methoxy-phenyl]methylidene]hydrazinyl]-4-oxidanylidene-1,3-thiazol-5-yl]ethanoic acid] | 20.3 µM
Cc1[nH][nH]c(=O)c1CCC(=O)NN=Cc1ccc(Cl)c(Cl)c1 | 15 µM
Cc1[nH][nH]c(=O)c1CCC(=O)NN=Cc1ccccc1[N+](=O)[O-] | 3.14 µM
C=CCOc1c(OC)cc(CN=Nc2cccc(C(=O)O)c2)c(Br)c1Br | 1 µM
Cc1cc(CN=Nc2ccc([N+](=O)[O-])cn2)c(C)n1-c1ccc(C(=O)O)cc1 [4-{2,5-dimethyl-3-[2-(5-nitro-2-pyridinyl)carbonohydrazonoyl]-1H-pyrrol-1-yl}benzoic acid] | 12.7 µM
CCOc1ccccc1C1c2c(-c3ccccc3)noc2N=C(N)C1C#N (stereo not given) [6-amino-4-(2-ethoxyphenyl)-3-phenyl-2,4-dihydroisoxazolo[5,4-b]pyridine-5-carbonitrile] | 52.7 µM
CCOC(O)c1oc2c(c(=O)c1-c1nncn1-c1ccccc1)C=CC(=O)C2=O (stereo not given) [ethyl 7,8-dihydroxy-4-oxo-3-(4-phenyl-4H-1,2,4-triazol-3-yl)-4H-chromene-2-carboxylate] | 6.58 µM
O=C1c2ccccc2C(=O)C1C1=NC(C(=O)O)c2c1c(O)n(-c1ccc(Cl)cc1)c2O (stereo not given) [MLS000331181] | 71.6 µM
C=C(c1ccc(OC)cc1)c1sc(=S)n(CCC(=O)O)c1O | 30.1 µM and 27.4 µM
CN(C)c1ccc(/N=N/c2ccccc2C(=O)OCC(=O)N2CCCC2)cc1 [MLS000374806] | 9.23 µM
O=C(Cc1cc(=O)[nH][nH]1)NN=Cc1cccc(Cl)c1Cl | 103 µM
Cc1ccc(/N=C2/S/C(=C\c3cn(CC(=O)O)c4ccccc34)C(=O)N2C)cc1 [2-[3-[(Z)-[3-methyl-2-(4-methylphenyl)imino-4-oxo-5-thiazolidinylidene]methyl]-1-indolyl]acetic acid] | 11.4 µM
C=c1[nH]n(CCC#N)c(=O)c1=Cc1ccc(N(C)C)cc1 [3-[(4E)-4-[[4-(dimethylamino)phenyl]methylidene]-3-methyl-5-oxo-1-pyrazolyl]propanenitrile] | 120 µM
COc1ccc(NC(=O)CSc2cc(O)n(-c3ccc4c(c3)OCCO4)c2O)cc1 [2-[1-(2,3-dihydro-1,4-benzodioxin-6-yl)-2,5-bis(oxidanylidene)pyrrolidin-3-yl]sulfanyl-N-(4-methoxyphenyl)ethanamide] | 16.1 µM
Cc1ccc(-c2n[nH]c3c2C(c2cccnc2)C(C#N)C(=N)O3)cc1 (stereo not given) [6-amino-3-(4-methylphenyl)-4-pyridin-3-yl-1,4-dihydropyrano[2,3-c]pyrazole-5-carbonitrile] | 25.8 µM
CC(=O)N1CCC2(CC1)c1c(CSc3ccc(C)cc3)n[nH]c1OC(=N)C2C#N (stereo not given) [SMR000036525] | 21.1 µM
N#CC1C(=N)Oc2[nH]nc(-c3ccc(F)cc3)c2C1c1ccncc1 (stereo not given) [6-amino-3-(4-fluorophenyl)-4-pyridin-4-yl-2,4-dihydropyrano[2,3-c]pyrazole-5-carbonitrile] | 94.3 µM
O=NCc1cn(CC(=O)N2CCOCC2)c2ccccc12 [2-[3-(hydroxyiminomethyl)indol-1-yl]-1-morpholin-4-ylethanone] | 78.9 µM
Cc1cc(-c2n[nH]c3c2C(c2cccc(O)c2)C(C#N)C(=N)O3)c(C)s1 (stereo not given) [SMR000136653] | 52.8 µM

SMILES | IC50
CCOc1ccc(-n2c(O)cc(SCCN)c2O)cc1 [3-(2-Amino-ethylsulfanyl)-1-(4-ethoxy-phenyl)-pyrrolidine-2,5-dione] | 23.6 µM
O=C1C=C/C(=C/NN2C(=O)C3C4C=CC(CC4)C3C2=O)C=C1O (stereo not given) [SMR000207592] | 34.3 µM
Cc1ccc(-c2n[nH]c3c2C(c2ccoc2)C(C#N)C(=N)O3)cc1C (stereo not given) [SMR000078160] | 3.65 µM
Cc1ccc(-c2ccc([CH+][N-]Nc3nc(O)c(CC(=O)O)s3)o2)c([N+](=O)[O-])c1 [SMR000135699] | 101 µM
CCOC(=O)C1C(=O)C(=Cc2ccc(OCC(=O)O)c(OCC)c2)SC1=Nc1ccc(OC)cc1 (stereo not given) [MLS000704394] | 21.3 µM
Cc1noc(NS(=O)(=O)c2ccc(N=CCC(=O)c3ccc4c(c3)OCO4)cc2)c1C [4-[[(Z)-3-(1,3-benzodioxol-5-yl)-3-oxoprop-1-enyl]amino]-N-(3,4-dimethyl-5-isoxazolyl)benzenesulfonamide] | 13.9 µM
COc1cccc(C=NNC(=O)Cc2c(C)[nH][nH]c2=O)c1OC [SMR000147373] | 23.5 µM
COc1ccc(NC(=O)CSc2nc(C)cc(=O)[nH]2)cc1 [N-(4-methoxyphenyl)-2-[(4-methyl-6-oxo-5H-pyrimidin-2-yl)sulfanyl]acetamide] | 3.09 µM
COc1cccc(-c2n[nH]c3c2C(c2ccoc2)C(C#N)C(=N)O3)c1 (stereo not given) [MLS000558215] | 76.8 µM
O=C1CCCC2=Nc3[nH]c(=S)[nH]c(=O)c3C(c3ccc(Br)cc3)C12 (stereo not given) [5-(4-bromophenyl)-2-thioxo-2,3,5,8,9,10-hexahydropyrimido[4,5-b]quinoline-4,6(1H,7H)-dione] | 16.7 µM
CC(=NNC(=O)Cc1c(C)[nH][nH]c1=O)c1ccco1 [MLS000723689] | 12.3 µM
O=NCc1ccc(OCc2ccccc2)c(C(=O)O)c1 [5-(hydroxyiminomethyl)-2-phenylmethoxybenzoic acid] | 16.4 µM
COc1ccc2sc(-n3c(O)c4c(c3O)CC(C)=CC4)nc2c1 | 35 µM
CN(C)c1ccc(/N=N/c2ccccc2C(=O)OCC(=O)N(C)C2CCCCC2)cc1 [[2-[cyclohexyl(methyl)amino]-2-oxidanylidene-ethyl] 2-[[4-(dimethylamino)phenyl]diazenyl]benzoate] | 15.2 µM
O=NCc1c[nH]c2ccccc12 [MLS000104363] | 13.2 µM
O=C(O)c1ccc(N=NCc2ccc(C(F)(F)F)cc2)cc1 [sulfuric acid;4-[(N'E)-N'-[4-(trifluoromethyl)benzylidene]hydrazino]benzoic acid] | 46.3 µM
N#CC1C(=N)Oc2[nH]nc(-c3ccccc3)c2C1c1ccsc1 (stereo not given) | 64.5 µM
N#Cc1c(NC=C2C(=O)NC(=S)NC2=O)sc2c1CCCC2 [SMR000305847] | 110 µM
CC(C)(C)OC(=O)C1=[N+]2N[CH-]c3ccccc3C2C2(C(=O)c3ccccc3C2=O)[C@H]1c1ccc([N+](=O)[O-])cc1 (stereo partly drawn) [(2R,3R)-2-(4-nitrophenyl)-1',3'-dioxo-3-spiro[3,10b-dihydro-2H-pyrrolo[2,1-a]phthalazine-1,2'-indene]carboxylic acid tert-butyl ester] | 2.23 µM
CC(C)(C)c1ccc(CN=Nc2ccc(C(=O)O)cc2)cc1 | 13.3 µM
O=C(Nn1c(O)csc1=S)C(=O)Nn1c(O)csc1=S [SMR000349781] | 20.5 µM
C/C(=C\c1ccco1)C1c2c(-c3ccc(C)cc3)n[nH]c2OC(=N)C1C#N (stereo not given) [MLS000519110] | 132 µM
Cc1ccc(SCc2cc(=O)[nH][nH]2)cc1 [5-p-Tolylsulfanylmethyl-2,4-dihydro-pyrazol-3-one] | 1.77 µM
Cc1[nH][nH]c(=O)c1CCC(=O)NN=Cc1ccco1 | 69.2 µM
Cc1ccc(CN=Nc2ccc(C(=O)O)cc2)s1 [SMR000364894] | 20.4 µM
N#CC1C(=N)Oc2[nH]nc(-c3ccc(F)cc3)c2C1c1cccnc1 (stereo not given) [MLS000043841] | 61.2 µM
O=C(O)[C@H]1O[C@@H](Oc2c(-c3ccc(O)c(O)c3)oc3cc(O)cc(=O)c-3c2O)[C@H](O)[C@@H](O)[C@@H]1O [quercetin glucuronide] | 48.2 µM
